{"source": "paper PMC11392244", "about": "“Characterization of a unique catechol-O-methyltransferase as a molecular drug target in parasitic filarial nematodes” (PLOS Neglected Tropical Diseases, 2024)", "key": {"DiMT protein": {"tested_on": "DiMT protein", "assay_type": "biochemical, Dirofilaria immitis"}, "D. immitis microfilariae": {"tested_on": "D. immitis microfilariae", "assay": "In vitro efficacy against live D. immitis microfilariae (motility, completely immotile %)", "assay_type": "cell-based, Dirofilaria immitis", "settings": "for Completely Immotile Microfilariae (%): single replicate"}}, "note": "Where “and” joins values, the source holds several entries; their conditions need not be identical. Equal entries are not always repeated. Where two headings read alike, the source gives them in different places.", "data": [{"smiles": "CO[C@H]1/C=C/O[C@@]2(C)Oc3c(C)c(O)c4c(O)c(cc(O)c4c3C2=O)NC(=O)/C(C)=C\\C=C\\[C@H](C)[C@H](O)[C@@H](C)[C@@H](O)[C@@H](C)[C@H](OC(C)=O)[C@@H]1C", "note": "[NSC133100]", "values": [{"measurement": "Mean Percent Inhibition", "setting": "DiMT protein; 100 µM", "result": "24.8% and 27.0% and 28.5%"}, {"measurement": "Mean Percent Inhibition, Average", "setting": "DiMT protein; 100 µM", "result": 26.8, "unit": "%"}, {"measurement": "Mean Percent Inhibition", "setting": "DiMT protein; 200 µM", "result": "32.0% and 34.7% and 35.8%"}, {"measurement": "Mean Percent Inhibition, Average", "setting": "DiMT protein; 200 µM", "result": 34.1, "unit": "%"}, {"measurement": "Mean Percent Inhibition", "setting": "DiMT protein; 300 µM", "result": "33.9% and 41.0% and 42.1%"}, {"measurement": "Mean Percent Inhibition, Average", "setting": "DiMT protein; 300 µM", "result": 39.0, "unit": "%"}, {"measurement": "Mean Percent Inhibition", "setting": "DiMT protein; 400 µM", "result": "40.4% and 46.0%"}, {"measurement": "Mean Percent Inhibition, Average", "setting": "DiMT protein; 400 µM", "result": 44.1, "unit": "%"}, {"measurement": "Mean Percent Inhibition", "setting": "DiMT protein; 500 µM", "result": "51.5% and 54.8% and 55.7%"}, {"measurement": "Mean Percent Inhibition, Average", "setting": "DiMT protein; 500 µM", "result": 54.0, "unit": "%"}, {"measurement": "IC50", "setting": "DiMT protein; read-out: IC 50 (μM ± SEM)", "result": "496.9 ± 2.7", "unit": "µM"}, {"measurement": "Mean completely Immotile (%)", "setting": "D. immitis microfilariae; 15 µM, 0 h", "result": 0, "unit": "%"}, {"measurement": "Completely Immotile Microfilariae (%)", "setting": "D. immitis microfilariae; 15 µM, 0 h", "result": 0, "unit": "%"}, {"measurement": "Mean completely Immotile (%)", "setting": "D. immitis microfilariae; 15 µM, 24 h", "result": 1, "unit": "%"}, {"measurement": "Completely Immotile Microfilariae (%)", "setting": "D. immitis microfilariae; 15 µM, 24 h", "result": "0% and 1% and 2%"}, {"measurement": "Mean completely Immotile (%)", "setting": "D. immitis microfilariae; 15 µM, 48 h", "result": 2.67, "unit": "%"}, {"measurement": "Completely Immotile Microfilariae (%)", "setting": "D. immitis microfilariae; 15 µM, 48 h", "result": "1% and 3% and 4%"}, {"measurement": "Mean completely Immotile (%)", "setting": "D. immitis microfilariae; 15 µM, 72 h", "result": 4.67, "unit": "%"}, {"measurement": "Completely Immotile Microfilariae (%)", "setting": "D. immitis microfilariae; 15 µM, 72 h", "result": "3% and 5% and 6%"}, {"measurement": "Mean completely Immotile (%)", "setting": "D. immitis microfilariae; 15 µM, 96 h", "result": 6.67, "unit": "%"}, {"measurement": "Completely Immotile Microfilariae (%)", "setting": "D. immitis microfilariae; 15 µM, 96 h", "result": "5% and 7% and 8%"}, {"measurement": "Mean completely Immotile (%)", "setting": "D. immitis microfilariae; 15 µM, 120 h", "result": 9.67, "unit": "%"}, {"measurement": "Completely Immotile Microfilariae (%)", "setting": "D. immitis microfilariae; 15 µM, 120 h", "result": "7% and 10% and 12%"}, {"measurement": "Mean completely Immotile (%)", "setting": "D. immitis microfilariae; 25 µM, 0 h", "result": 0, "unit": "%"}, {"measurement": "Completely Immotile Microfilariae (%)", "setting": "D. immitis microfilariae; 25 µM, 0 h", "result": 0, "unit": "%"}, {"measurement": "Mean completely Immotile (%)", "setting": "D. immitis microfilariae; 25 µM, 24 h", "result": 3, "unit": "%"}, {"measurement": "Completely Immotile Microfilariae (%)", "setting": "D. immitis microfilariae; 25 µM, 24 h", "result": "2% and 3% and 4%"}, {"measurement": "Mean completely Immotile (%)", "setting": "D. immitis microfilariae; 25 µM, 48 h", "result": 4.67, "unit": "%"}, {"measurement": "Completely Immotile Microfilariae (%)", "setting": "D. immitis microfilariae; 25 µM, 48 h", "result": "3% and 5% and 6%"}, {"measurement": "Mean completely Immotile (%)", "setting": "D. immitis microfilariae; 25 µM, 72 h", "result": 6.67, "unit": "%"}, {"measurement": "Completely Immotile Microfilariae (%)", "setting": "D. immitis microfilariae; 25 µM, 72 h", "result": "5% and 7% and 8%"}, {"measurement": "Mean completely Immotile (%)", "setting": "D. immitis microfilariae; 25 µM, 96 h", "result": 9.33, "unit": "%"}, {"measurement": "Completely Immotile Microfilariae (%)", "setting": "D. immitis microfilariae; 25 µM, 96 h", "result": "7% and 10% and 11%"}, {"measurement": "Mean completely Immotile (%)", "setting": "D. immitis microfilariae; 25 µM, 120 h", "result": 13.67, "unit": "%"}, {"measurement": "Completely Immotile Microfilariae (%)", "setting": "D. immitis microfilariae; 25 µM, 120 h", "result": "10% and 16% and 15%"}, {"measurement": "Mean completely Immotile (%)", "setting": "D. immitis microfilariae; 50 µM, 0 h", "result": 0, "unit": "%"}, {"measurement": "Completely Immotile Microfilariae (%)", "setting": "D. immitis microfilariae; 50 µM, 0 h", "result": 0, "unit": "%"}, {"measurement": "Mean completely Immotile (%)", "setting": "D. immitis microfilariae; 50 µM, 24 h", "result": 5, "unit": "%"}, {"measurement": "Completely Immotile Microfilariae (%)", "setting": "D. immitis microfilariae; 50 µM, 24 h", "result": "4% and 5% and 6%"}, {"measurement": "Mean completely Immotile (%)", "setting": "D. immitis microfilariae; 50 µM, 48 h", "result": 8, "unit": "%"}, {"measurement": "Completely Immotile Microfilariae (%)", "setting": "D. immitis microfilariae; 50 µM, 48 h", "result": "7% and 8% and 9%"}, {"measurement": "Mean completely Immotile (%)", "setting": "D. immitis microfilariae; 50 µM, 72 h", "result": 10.67, "unit": "%"}, {"measurement": "Completely Immotile Microfilariae (%)", "setting": "D. immitis microfilariae; 50 µM, 72 h", "result": "9% and 11% and 12%"}, {"measurement": "Mean completely Immotile (%)", "setting": "D. immitis microfilariae; 50 µM, 96 h", "result": 12.67, "unit": "%"}, {"measurement": "Completely Immotile Microfilariae (%)", "setting": "D. immitis microfilariae; 50 µM, 96 h", "result": "11% and 13% and 14%"}, {"measurement": "Mean completely Immotile (%)", "setting": "D. immitis microfilariae; 50 µM, 120 h", "result": 17, "unit": "%"}, {"measurement": "Completely Immotile Microfilariae (%)", "setting": "D. immitis microfilariae; 50 µM, 120 h", "result": "14% and 19% and 18%"}, {"measurement": "Mean completely Immotile (%)", "setting": "D. immitis microfilariae; 75 µM, 0 h", "result": 0, "unit": "%"}, {"measurement": "Completely Immotile Microfilariae (%)", "setting": "D. immitis microfilariae; 75 µM, 0 h", "result": 0, "unit": "%"}, {"measurement": "Mean completely Immotile (%)", "setting": "D. immitis microfilariae; 75 µM, 24 h", "result": 6.33, "unit": "%"}, {"measurement": "Completely Immotile Microfilariae (%)", "setting": "D. immitis microfilariae; 75 µM, 24 h", "result": "5% and 6% and 8%"}, {"measurement": "Mean completely Immotile (%)", "setting": "D. immitis microfilariae; 75 µM, 48 h", "result": 10, "unit": "%"}, {"measurement": "Completely Immotile Microfilariae (%)", "setting": "D. immitis microfilariae; 75 µM, 48 h", "result": "9% and 10% and 11%"}, {"measurement": "Mean completely Immotile (%)", "setting": "D. immitis microfilariae; 75 µM, 72 h", "result": 13, "unit": "%"}, {"measurement": "Completely Immotile Microfilariae (%)", "setting": "D. immitis microfilariae; 75 µM, 72 h", "result": "12% and 13% and 14%"}, {"measurement": "Mean completely Immotile (%)", "setting": "D. immitis microfilariae; 75 µM, 96 h", "result": 15.67, "unit": "%"}, {"measurement": "Completely Immotile Microfilariae (%)", "setting": "D. immitis microfilariae; 75 µM, 96 h", "result": "14% and 16% and 17%"}, {"measurement": "Mean completely Immotile (%)", "setting": "D. immitis microfilariae; 75 µM, 120 h", "result": 20.67, "unit": "%"}, {"measurement": "Completely Immotile Microfilariae (%)", "setting": "D. immitis microfilariae; 75 µM, 120 h", "result": "17% and 23% and 22%"}, {"measurement": "effect on microfilariae", "setting": "D. immitis microfilariae; up to 120 h of culture", "result": "insignificant effect"}]}, {"smiles": "CO[C@@H]1[C@@H](OC(=O)c2ccc(C)[nH]2)[C@@H](O)[C@H](Oc2ccc3c(O)c(NC(=O)c4ccc(O)c(CC=C(C)C)c4)c(=O)oc3c2Cl)OC1(C)C", "note": "[NSC227186]", "values": [{"measurement": "Mean Percent Inhibition", "setting": "DiMT protein; 10 µM", "result": "25.0% and 23.9% and 30.2%"}, {"measurement": "Mean Percent Inhibition, Average", "setting": "DiMT protein; 10 µM", "result": 26.4, "unit": "%"}, {"measurement": "Mean Percent Inhibition", "setting": "DiMT protein; 40 µM", "result": "40.1% and 37.1% and 38.3%"}, {"measurement": "Mean Percent Inhibition, Average", "setting": "DiMT protein; 40 µM", "result": 38.5, "unit": "%"}, {"measurement": "Mean Percent Inhibition", "setting": "DiMT protein; 70 µM", "result": "40.5% and 43.1% and 39.6%"}, {"measurement": "Mean Percent Inhibition, Average", "setting": "DiMT protein; 70 µM", "result": 41.1, "unit": "%"}, {"measurement": "Mean Percent Inhibition", "setting": "DiMT protein; 100 µM", "result": "44.8% and 43.5% and 45.8%"}, {"measurement": "Mean Percent Inhibition, Average", "setting": "DiMT protein; 100 µM", "result": 44.7, "unit": "%"}, {"measurement": "Mean Percent Inhibition", "setting": "DiMT protein; 130 µM", "result": "46.6% and 49.3% and 48.1%"}, {"measurement": "Mean Percent Inhibition, Average", "setting": "DiMT protein; 130 µM", "result": 48.0, "unit": "%"}, {"measurement": "Mean Percent Inhibition", "setting": "DiMT protein; 160 µM", "result": "50.6% and 48.4% and 57.2%"}, {"measurement": "Mean Percent Inhibition, Average", "setting": "DiMT protein; 160 µM", "result": 52.0, "unit": "%"}]}]}
